Test results reported in patent US12606529B2, “Sulfur and amide tropolone inhibitors of nucleotidyl transferases and uses therefor” (Saint Louis University, priority 2019, dated 2026).
In brackets after ≈: the same amount, converted by molar mass. Like-named read-outs stand apart in the source and are kept apart here.

Assays:
HBV replication = HBV replication inhibition in HepDES19 cells (strand-preferential qPCR); details: for EC50: Hepatitis B virus; for SI (CC50/EC50): cytotoxicity CC50 over HBV replication EC50
Procedure: Cells used for toxicity and HBV studies.
HBV replication inhibition studies. HepDES19 cells were seeded in 96-well plates at 4×10^4 cells per well in the absence of tetracycline. Test compounds in a final DMSO concentration of 1% were applied to cells 48 hours after induction of HBV replication and cells were incubated with compounds for 72 hours. Cells were washed in 200 μL of phosphate buffered saline (PBS) and lysed in 150 μL of core lysis buffer (10 mM Tris pH 7.4, 1% Tween20, 150 mM NaCl). Cells were incubated at room temperate on an orbital shaker at 350 rpm for 40 minutes. Cell lysate was transferred to a 96 well polymerase chain reaction (PCR) plate and centrifuged at 3300×g for 5 minutes. The supernatant (50 μL) from the cell lysate was transferred to a 96-well PCR plate and mixed with 20 units of micrococcal nuclease and 100 μM CaCl2. The lysate was incubated for 1 hour at 37° C., and then the nuclease was inactivated at 70° C. for ten minutes. Qiagen protease (0.005 Anson units) was added to the lysate and the mixture was incubated overnight. Qiagen protease was then inactivated at 95° C. for ten minutes.
The crude lysate was used as the template for strand-preferential quantitative polymerase chain reaction (q-PCR) analysis. Quantitative PCR was performed with 40 cycles of 95° C. for 15 s and 60° C. for 1 minute employing the Kappa Probe Force universal PCR master mix.

HSV-1 = assay: Anti-HSV-1 replication assay (Vero cells, plaque titer); assay type: cell-based, herpes simplex virus 1; details: for log reduction at 5 µM: compound at 5 μM, read-out: HSV-1 suppression 5 μM; for log reduction at 1 µM: compound at 1 μM, read-out: HSV-1 suppression 1 μM
human RNaseH1 = biological target: T1, human RNaseH1 (Homo sapiens, UniProt O60930); assay: Biochemical inhibition of human RNaseH1 activity; details: for SIApparent (huRH1 IC50/EC50): huRH1 IC50 over HBV replication EC50
T1 sequence (O60930 1-286): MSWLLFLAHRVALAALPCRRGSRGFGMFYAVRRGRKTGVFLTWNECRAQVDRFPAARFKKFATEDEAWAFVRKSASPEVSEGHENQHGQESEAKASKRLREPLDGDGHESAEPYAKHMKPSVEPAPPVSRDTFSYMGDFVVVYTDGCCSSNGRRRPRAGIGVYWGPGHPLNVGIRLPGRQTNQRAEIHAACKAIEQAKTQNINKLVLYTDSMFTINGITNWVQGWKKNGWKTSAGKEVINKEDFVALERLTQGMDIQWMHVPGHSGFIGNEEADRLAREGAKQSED
Procedure: Biochemical inhibition of human RNaseH1 activity. Quantitative inhibition of the human RNaseH1 in the biochemical assays was assessed using a molecular beacon assay as described previously (Edwards et al., 2017). Recombinant human RNaseH 1 (0.3 μg) was incubated with 100 nM RNA:DNA substrate, 50 mM HEPES pH 8.0, 100 mM NaCl, 2 mM Tris(2-carboxyethyl)phosphine hydrochloride (TCEP), 0.05% Tween20, 5 units of RNaseOut, test compounds (0 to 500 μM), and 5% DMSO in a 100 μL reaction volume. The substrate was formed by annealing a complementary RNA oligonucleotide to a hairpin DNA oligonucleotide to hold the hairpin DNA oligonucleotide in an open conformation. The DNA oligonucleotide has a 5′ fluorescein reporter and a 3′ black hole quencher. When the RNA is degraded from the substrate the DNA oligonucleotide closes to form a hairpin structure, decreasing in signal intensity. Reactions were initiated with 5 mM MgCl2 and fluorescence was read using a Synergy HTS multi-mode plate reader at 37° C. Alternatively, the HBV RNaseH version used was MBP-HRHgtCΔ5, a genotype C isolate which lacks the C-terminal 35 amino acids of the HBV RNaseH domain that are predicted to be unstructured. Quantitative inhibition of the human RNaseH1 in biochemical assays was assessed using a FRET-based RNaseH assay under conditions previously reported for an RNaseH molecular beacon assay (Edwards et al., 2017). […] Cleavage of the RNA strand released the fluorescein from quenching, increasing fluorescence. Reactions were monitored for 90 min at 37° C. in a plate reader and initial reaction rates were calculated. Reactions contained escalating concentrations of the compounds.

[1] = tested on: C. neoformans var. grubii, KN99; assay: C. neoformans growth inhibition assay (limiting dilution); assay type: cell-based, Cryptococcus neoformans; details: Cryptococcus neoformans, 48 h, 48 h, 35° C., read-out: C. neoformans MIC80
Procedure: Cell types used for C. neoformans studies. All inhibition assays were performed with C. neoformans var. grubii, KN99 (serotype A, MAT). Two clinical strains of C. neoformans var. grubii, serotype A, were provided by Tamara Doering and Andre Spec. […] Cells were diluted to OD650 0.001 in YNB-02 02 (0.67% yeast nitrogen base, 0.2% dextrose, pH 7.0 with 50 mM MOPs)+1% DMSO prior to addition to the plates for the inhibition assays.
C. neoformans growth inhibition assays. Compounds were tested in a limiting dilution assay with a starting optical density (at 650 nm) of 0.001 in YNB-02 plus 1% DMSO. Cells plus compound were incubated in 96-well clear round bottom plates covered with a Breath-easy® membrane without shaking for 48 hours at 35° C. Before measuring cell density, plates were shaken on a microtiter plate shaker at 900 rpm for 3 minutes to resuspend cells and optical density was measured at 650 nm. […] Each assay was done in triplicate and all values are the average of two or more independent assays. The data are presented as the average cell density as a percent of DMSO-only treated cells. MICs are reported as the minimal concentration needed to inhibit 80% of C. neoformans growth relative to vehicle-treated controls.

in vitro = details: human, HepDES19 cells
[2] = HepDES19, 72 h, Table 2 amides, HBV replication, HepDES19 cells, plus-polarity DNA, 72 h
[3] = Human alphaherpesvirus 1, Vero, Table 2 amides, values separated by / are repeats
[4] = Table 2 amides, read-out: HuRH1 IC50
[5] = Table 2 amides, tested 0.19 to 50 μM
[6] = HepDES19, read-out: HBV EC50, Table 3 sulfur compounds, HBV replication, HepDES19 cells
[7] = Human alphaherpesvirus 1, Vero, Table 3 sulfur compounds, values separated by / are repeats
[8] = Table 3 sulfur compounds, read-out: Hu RNaseH IC50
[9] = CC50, Table 3 sulfur compounds, MTT
[10] = HepDES19, read-out: EC50 against HBV replication

Row | Structure (SMILES) | EC50 (HBV replication; [2]) [µM] | log reduction at 5 µM (HSV-1; [3]) | IC50 (human RNaseH1; [4]) [µM] | MIC80 [1, 5] [µM] | CC50 at 24 h (in vitro; CC50 (μM), Table 2 amides, MTT) [µM] | EC50 (HBV replication; [6]) [µM] | log reduction at 1 µM (HSV-1; [7]) | log reduction at 5 µM (HSV-1; [7]) | IC50 (human RNaseH1; [8]) [µM] | MIC80 ([1]; Table 3 sulfur compounds) [µM] | CC50 at 24 h (in vitro; [9]) [µM] | other results
1 | Cc1cc(O)c(=O)c(O)cc1C(=O)N1CCSC1 [compound 712] | 0.77 ± 0.5 | 0.36 | 116 ± 67.6 | 18 (≈ 4.81 µg/mL) | 6.4 ± 0.8 | – | – | – | – | – | – | –
2 | O=c1c(O)cccc(S(=O)(=O)c2cccc3ccccc23)c1O [compound 698] | – | – | – | – | – | 6.18 | -0.35 | 4.85 | 234 | 49 (≈ 16.1 µg/mL) | 14.8 | log reduction at 0.33 µM (HSV-1; Human alphaherpesvirus 1, Vero, Table 3 sulfur compounds, compound at 0.33 μM, values separated by / are repeats, read-out: HSV-1 suppression 0.33 μM): -0.31
3 | O=c1c(O)cccc(S(=O)(=O)Cc2ccccc2)c1O [compound 705] | – | – | – | – | – | 2.76 | 0.19 | 3.55 | 135 | 50 (≈ 14.6 µg/mL) | 8.4 | –
4 | Cc1cc(O)c(=O)c(O)cc1C(=O)N1CCN(C(=O)c2ccco2)CC1 [compound 800] | 0.52 ± 0.2 | – | 46.3 ± 10.2 | 26 (≈ 9.32 µg/mL) | 16.5 ± 11.4 | – | – | – | – | – | – | –
5 | Cc1cc(O)c(=O)c(O)cc1C(=O)Nc1ccc(F)nc1 [compound 707] | 0.54 | -0.18 | 148 ± 22.3 | 36 (≈ 10.4 µg/mL) | 19.4 ± 8.4 | – | – | – | – | – | – | SI (CC50/EC50) (HBV replication; Table 2 amides): 36.2; SIApparent (huRH1 IC50/EC50) (human RNaseH1; Table 2 amides): 277
6 | Cc1cc(O)c(=O)c(O)cc1C(=O)N1CCN(C(=O)C2COc3ccccc3O2)CC1 (stereo not shown) [compound 876] | 0.7 ± 0.4 | 0.273 | 39.2 ± 40.6 | 9 (≈ 3.84 µg/mL) | 9.2 ± 3.2 | – | – | – | – | – | – | log reduction at 1 µM (HSV-1; [3]): -0.0739
7 | O=c1c(O)cccc(SCCc2ccccc2)c1O [compound 704] | – | – | – | – | – | 52 | 0.06 | 5.72 | 24.7 | 1.4 (≈ 0.384 µg/mL) | 21.6 | EC50 (HBV replication; [10]): 52 µM
8 | O=c1c(O)cccc(Sc2ccccc2)c1O [compound 691] | – | – | – | – | – | 43.6 | 0.72 | 5.69 | 31.9 | 1 (≈ 0.246 µg/mL) | 19.5 | Reduction of HSV-1 titers / suppression of HSV-1 replication at 5 μM (HSV-1; 5 μM, plaque forming units (PFU)/ml): > 3 log10
9 | CCCCSc1ccc(SCCCC)c(O)c(=O)c1O [compound 694] | – | – | – | – | – | 12.6 | 4.85 | 5.86 | 127 | 2 (≈ 0.629 µg/mL) | 1.8 | Therapeutic index (CC50/EC50) for HBV (TI, SI) (HBV replication): 0.14
10 | COC(=O)[C@H](CCSC)NC(=O)c1cc(O)c(=O)c(O)cc1C [compound 796] | 1.1 ± 0.1 | – | 83.3 ± 40.2 | 18 (≈ 6.14 µg/mL) | 36 ± 24.1 | – | – | – | – | – | – | –
11 | O=c1c(O)c(SCc2ccccc2)ccc(SCc2ccccc2)c1O [compound 703] | – | – | – | – | – | 10.6 | 4.56 | 5.88 | 49.6 | 6.75 (≈ 2.58 µg/mL) | 8.2 | –
12 | Cc1cc(O)c(=O)c(O)cc1C(=O)Nc1ccc(F)cc1F [compound 711] | 0.75 ± 0.3 | 0.32 | 184 | 4.5 (≈ 1.38 µg/mL) | 4.6 ± 0.8 | – | – | – | – | – | – | EC50 against HBV replication (HBV replication): sub-micromolar; SI (CC50/EC50) (HBV replication; Table 2 amides): 10.2; SIApparent (huRH1 IC50/EC50) (human RNaseH1; Table 2 amides): 247
13 | Cc1cc(O)c(=O)c(O)cc1C(=O)N1CCCCC1 [compound 390] | 0.31 ± 0.1 | 0.52 | 106 ± 64.6 | 22 (≈ 5.79 µg/mL) | 24.9 ± 11.6 | – | – | – | – | – | – | EC50 (HBV replication; [10]): 0.31 µM; CC50 at 24 h (in vitro; CC50): > 20 µM
14 | Cc1cc(O)c(=O)c(O)cc1C(=O)N1CCN(C(c2ccc(F)cc2)c2ccc(F)cc2)CC1 [compound 1017] | 5.6 | – | 29.9 ± 10.7 | 6 (≈ 2.8 µg/mL) | 3.9 ± 1.4 | – | – | – | – | – | – | EC50 (HBV replication; [10]): > 2 µM
15 | Cc1cc(O)c(=O)c(O)cc1C(=O)N1CCN(c2ncccn2)CC1 [compound 1016] | 0.9 | – | 5.1 ± 2.7 | 18 (≈ 6.16 µg/mL) | 24.6 ± 40 | – | – | – | – | – | – | –
16 | C#CCCC1(CCNC(=O)c2cc(O)c(=O)c(O)cc2C)N=N1 [compound 384] | 0.66 ± 0.7 | 0.77 | 111 ± 48.8 | 3.5 (≈ 1.1 µg/mL) | 17.6 ± 8.9 | – | – | – | – | – | – | –
17 | Cc1cc(O)c(=O)c(O)cc1C(=O)N1CCN(C2CC2)CC1 [compound 871] | 1.15 ± 0.4 | -0.0192 | 88.2 ± 43.3 | 50 (≈ 15.2 µg/mL) | 36.6 ± 3.6 | – | – | – | – | – | – | log reduction at 1 µM (HSV-1; [3]): -0.1
18 | Cc1cc(O)c(=O)c(O)cc1C(=O)N1CCN(Cc2c(F)cccc2Cl)CC1 [compound 1021] | 3.05 ± 0.6 | – | 44 ± 46.2 | 4.5 (≈ 1.83 µg/mL) | 10.4 ± 7.3 | – | – | – | – | – | – | EC50 (HBV replication; [10]): > 2 µM
19 | O=c1c(O)cccc(S)c1O [compound 701] | – | – | – | – | – | 7.6 | – | 0.94 | 46 | 5 (≈ 0.851 µg/mL) | 63.9 | –
20 | Cc1cc(O)c(=O)c(O)cc1C(=O)N1CCN(C(=O)c2cccnc2)CC1 [compound 918] | 1.45 ± 0.4 | – | 127 ± 98.1 | 50 (≈ 18.5 µg/mL) | 43.8 ± 10.7 | – | – | – | – | – | – | –
